The test system of assay [1] is panel of 468 human kinases. In words: DiscoverX KINOMEscan selectivity profiling, 468 kinase panel. The note with it: CDK7 the only kinase with less than 35% control activity at 0.2 µM. The class given is binding. The method, then:
(§1) The purpose of the study is to generate an in vitro selectivity profile of the compounds of Example 8. To address selectivity, the compound of Example 8 is tested in a panel of 468 human kinases at DiscoverX Corporation using the KINOMEscan™ screening platform. KINOMEscan™ employs a novel and proprietary active site-directed competition binding assay to quantitatively measure interactions between test compounds and more than 450 human kinases and disease relevant mutant variants.
(§2) Compounds that bind the kinase active site and directly (sterically) or indirectly (allosterically) prevent kinase binding to an immobilized ligand, will reduce the amount of kinase captured on the solid support. […] Compound activity is monitored by measuring the amount of kinase captured in test versus control samples by using a qPCR method that detects the associated DNA label. Further information regarding the DiscoverX Corporation KINOMEscan™ screening platform can be found at http://www.discoverx.com.
(§3) Assays to monitor binding to a 468 kinase panel were conducted at DiscoverXⓇ Corporation (Fremont, CA). Example 8 is tested at 20 µM, 2 µM, and 0.2 µM final concentrations. Kinases are tagged with DNA for qPCR detection. […] The kinase concentration in the eluates is measured by qPCR. […]

Assay [2] concerns the target T1, CDK7 (Homo sapiens, UniProt P50613).
T1 construct: purchased DiscoverX Corporation (KINOMEscan service)
Nature of the assay: DiscoverX KINOMEscan competition binding, CDK7. Conditions: 0.2 µM compound. The method, then: as §1, §2, §3

T1 sequence (P50613 whole entry): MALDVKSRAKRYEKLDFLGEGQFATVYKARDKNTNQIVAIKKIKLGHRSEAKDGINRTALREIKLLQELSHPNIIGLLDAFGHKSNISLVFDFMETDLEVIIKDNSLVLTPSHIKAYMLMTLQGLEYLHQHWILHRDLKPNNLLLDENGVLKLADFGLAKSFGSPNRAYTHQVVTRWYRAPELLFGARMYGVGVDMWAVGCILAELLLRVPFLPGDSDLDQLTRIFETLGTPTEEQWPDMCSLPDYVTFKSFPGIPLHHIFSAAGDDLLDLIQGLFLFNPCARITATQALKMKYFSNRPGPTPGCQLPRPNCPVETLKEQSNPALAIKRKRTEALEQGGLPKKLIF

As to `C=CC(=O)N1CCO[C@H](CN2CCC(Nc3cc(C(F)(F)F)cn4c(C(C)C)cnc34)CC2)C1` [Example 8, 1-[(2R)-2-[[4-[[3-isopropyl-6-(trifluoromethyl)imidazo[1,2-a]pyridin-8-yl]amino]-1-piperidyl]methyl]morpholin-4-yl]prop-2-en-1-one], the “selectivity against the 468 protein kinases panel” value in assay [1] was “excellent selectivity”. In addition, the remaining binding at 0.2 µM in assay [2] (read-out: % control activity against CDK7) was about 4%. The inhibition at 0.2 µM in assay [2] (read-out: inhibition against CDK7) is about 96%.

One may read the inhibition as the drop in the measured response relative to a control, in per cent.

The values above are taken from patent US20230203031A1, “COMPOUNDS USEFUL FOR INHIBITING CDK7” (Eli Lilly and Company, priority 2020, published 2023).
